According to the supplement of paper PMC10307832:

Key:
Assay in all cases: relative viability (nuclei count vs DMSO), 5 days (fraction); higher = more cells survive
IU1-47 + Tozasertib = compound: CC1=CC(=C(N1C2=CC=C(C=C2)Cl)C)C(=O)CN3CCCCC3 [IU1-47] + Cc1cc(Nc2cc(N3CCN(C)CC3)nc(Sc3ccc(NC(=O)C4CC4)cc3)n2)n[nH]1 [Tozasertib] (partner 0.1 µM)
Summary of the method: (§1)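 Nuclei were stained with Hoechst during a one-step fixation (final 0.05% Triton X-100, 1% formaldehyde, 1 ug/ml Hoechst) carried out 5 days after dosing, then counted on 4× images. The cells, lung cancer lines in 1536-well plates, had been dosed by pin tool the day after seeding with one drug alone or a fixed anchor-drug dose plus five library-drug doses (not always all listed) in √10 steps. Relative viability is the nuclei count in treated wells divided by that in vehicle wells, and each value is the median of duplicate plates.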

FG-4592 + Foretinib = compound: Cc1nc(C(=O)NCC(=O)O)c(O)c2ccc(Oc3ccccc3)cc12 [FG-4592] + COc1cc2c(Oc3ccc(NC(=O)C4(C(=O)Nc5ccc(F)cc5)CC4)cc3F)ccnc2cc1OCCCN1CCOCC1 [Foretinib] (partner 0.25 µM)
Summary of the method: as §1

FG-4592 + Bortezomib = compound: Cc1nc(C(=O)NCC(=O)O)c(O)c2ccc(Oc3ccccc3)cc12 [FG-4592] + CC(C)C[C@H](NC(=O)[C@H](Cc1ccccc1)NC(=O)c1cnccn1)B(O)O [Bortezomib] (partner 0.002 µM)
Summary of the method: as §1

FG-4592 + Linsitinib = compound: Cc1nc(C(=O)NCC(=O)O)c(O)c2ccc(Oc3ccccc3)cc12 [FG-4592] + C[C@]1(O)C[C@@H](c2nc(-c3ccc4ccc(-c5ccccc5)nc4c3)c3c(N)nccn32)C1 [Linsitinib] (partner 1 µM)
Summary of the method: as §1

Cell Line | relative viability (IU1-47 + Tozasertib; first compound 0.08 µM) | relative viability (IU1-47 + Tozasertib; first compound 0.253 µM) | relative viability (IU1-47 + Tozasertib; first compound 0.8 µM) | relative viability (IU1-47 + Tozasertib; first compound 2.53 µM) | relative viability (IU1-47 + Tozasertib; first compound 8 µM) | relative viability (FG-4592 + Foretinib; first compound 0.08 µM) | relative viability (FG-4592 + Foretinib; first compound 0.253 µM) | relative viability (FG-4592 + Foretinib; first compound 0.8 µM) | relative viability (FG-4592 + Foretinib; first compound 2.53 µM) | relative viability (FG-4592 + Foretinib; first compound 8 µM) | relative viability (FG-4592 + Bortezomib; first compound 0.08 µM) | relative viability (FG-4592 + Bortezomib; first compound 0.253 µM) | relative viability (FG-4592 + Bortezomib; first compound 0.8 µM) | relative viability (FG-4592 + Bortezomib; first compound 2.53 µM) | relative viability (FG-4592 + Bortezomib; first compound 8 µM) | relative viability (FG-4592 + Linsitinib; first compound 0.08 µM) | relative viability (FG-4592 + Linsitinib; first compound 0.253 µM) | relative viability (FG-4592 + Linsitinib; first compound 0.8 µM) | relative viability (FG-4592 + Linsitinib; first compound 2.53 µM) | relative viability (FG-4592 + Linsitinib; first compound 8 µM)
ChaGo-K-1 | 0.203 | 0.216 | 0.263 | 0.215 | 0.228 | 0.997 | 0.834 | 0.919 | 0.973 | 0.897 | 1.04 | 0.873 | 0.726 | 1.11 | 0.533 | – | – | – | – | –
EBC-1 | – | – | – | – | – | 0.11 | 0.0946 | 0.106 | 0.0866 | 0.1 | 0.63 | 0.531 | 0.57 | 0.546 | 0.688 | 0.88 | 0.905 | 0.824 | 0.862 | 0.825
EKVX | 0.418 | 0.433 | 0.367 | 0.341 | 0.349 | 0.744 | 0.804 | 0.773 | 0.717 | 1.04 | 1.1 | 0.94 | 1.06 | 1.17 | 0.885 | 1.01 | 0.916 | 0.948 | 0.989 | 0.989
EMC-BAC-2 | 0.279 | 0.305 | 0.285 | 0.305 | 0.271 | 0.997 | 0.995 | 1.01 | 1.06 | 0.977 | 1.04 | 1.04 | 0.934 | 1.02 | 1 | 0.846 | 0.767 | 0.767 | 0.836 | 0.833
EPLC-272H | 0.228 | 0.347 | 0.246 | – | 0.145 | 0.755 | 0.738 | 0.521 | 0.706 | 0.641 | 0.897 | 0.712 | 0.7 | 0.979 | 0.799 | 1.09 | 1.06 | 0.859 | 1.18 | 1.03
H3255 | 0.725 | 0.636 | 0.643 | 0.416 | 0.752 | 0.848 | 0.752 | 0.881 | 0.903 | 0.947 | 0.816 | 0.606 | 0.752 | 0.744 | 0.906 | 0.963 | 0.868 | 0.896 | 1.07 | 0.959
HARA | 0.0876 | 0.0862 | 0.0879 | – | 0.0969 | 0.834 | 0.87 | 0.896 | 0.885 | 0.878 | 1.03 | 1.01 | – | 1.08 | 1.11 | 0.955 | 0.881 | – | 0.996 | 1.03
HCC-15 | 0.385 | 0.432 | 0.354 | – | 0.227 | 1.03 | 0.978 | 1.04 | 0.93 | 1.07 | 1.01 | 0.913 | 1.07 | 1.07 | 0.999 | 0.874 | 0.805 | 0.93 | 0.831 | 0.914
HCC-44 | 1.13 | 1.16 | 0.968 | 0.995 | 1.22 | – | – | – | – | – | 0.817 | 0.894 | 0.946 | 0.921 | 0.889 | 0.671 | 0.603 | 0.569 | 0.732 | 0.661
